This note sets out measurements from patent US12404289B2 (Gilead Sciences, Inc., priority 2020, dated 2025).

One assay concerns Respiratory syncytial virus (RSV) strain A2. Description: RSV antiviral assay (HEp-2, 96 well). Conditions: human respiratory syncytial virus, HEp-2, 96 h, read-out: EC50 RSV HEP2 96, HEp-2 cells, RSV A2, MOI=4, 4 days, 96 well; Table 3. The class given is cell-based.
In general, EC50 refers to the concentration at which the effect is half-maximal. As to `CCC(CC)COC(=O)[C@H](C)NP(=O)(OC[C@H]1O[C@@](C#N)(c2ccc3c(N)ncnn23)[C@H](OC(=O)C(C)C)[C@@H]1OC(=O)C(C)C)Oc1ccc2ccccc2c1` (stereo partly drawn) [Example 69a, [(2R,3R,4R,5R)-5-(4-aminopyrrolo[2,1-f][1,2,4]triazin-7-yl)-5-cyano-2-[[[[(1S)-2-(2-ethylbutoxy)-1-methyl-2-oxo-ethyl]amino]-(2-naphthyloxy)phosphoryl]oxymethyl]-4-(2-methylpropanoyloxy)tetrahydrofuran-3-yl] 2-methylpropanoate], the half-maximal effective concentration (EC50) was found to be 22.1 nM.
On the same count and under the same terms, to `CCC(CC)COC(=O)[C@H](C)NP(=O)(OC[C@H]1O[C@@](C#N)(c2ccc3c(N)ncnn23)[C@H](O)[C@@H]1O)Oc1ccc(C[C@H](NC(=O)OCc2ccccc2)C(=O)OCCC(C)C)cc1` (stereo partly drawn) [Example 71, isopentyl (2S)-3-[4-[[(2R,3S,4R,5R)-5-(4-aminopyrrolo[2,1-f][1,2,4]triazin-7-yl)-5-cyano-3,4-dihydroxy-tetrahydrofuran-2-yl]methoxy-[[(1S)-2-(2-ethylbutoxy)-1-methyl-2-oxo-ethyl]amino]phosphoryl]oxyphenyl]-2-(benzyloxycarbonylamino)propanoate] belongs 1790 nM; to `CCC(CC)COC(=O)[C@H](C)NP(=O)(OC[C@H]1O[C@@](C#N)(c2ccc3c(N)ncnn23)[C@H](OC(=O)C(C)C)[C@@H]1OC(=O)C(C)C)Oc1ccc(C[C@H](NC(=O)OCc2ccccc2)C(=O)OCCC(C)C)cc1` (stereo partly drawn) [Example 72, (2R,3R,4R,5R)-2-(4-aminopyrrolo[2,1-f][1,2,4]triazin-7-yl)-5-((((4-((S)-2-(((benzyloxy)carbonyl)amino)-3-(isopentyloxy)-3-oxopropyl)phenoxy)(((S)-1-(2-ethylbutoxy)-1-oxopropan-2-yl)amino)phosphoryl)oxy)methyl)-2-cyanotetrahydrofuran-3,4-diyl bis(2-methylpropanoate)], 556 nM.
For the molecule `C[C@H](NP(=O)(OC[C@H]1O[C@@](C#N)(c2ccc3c(N)ncnn23)[C@H](O)[C@@H]1O)Oc1ccc(C(C)(C)C)cc1)C(=O)OC1CCCCCCC1` (stereo partly drawn) [Example 73, cyclooctyl (2S)-2-[[[(2R,3S,4R,5R)-5-(4-aminopyrrolo[2,1-f][1,2,4]triazin-7-yl)-5-cyano-3,4-dihydroxy-tetrahydrofuran-2-yl]methoxy-(4-tert-butylphenoxy)phosphoryl]amino]propanoate], the EC50 stood at 552 nM.
Turning to `CCC(C)(C)CCOC(=O)[C@H](C)NP(=O)(OC[C@H]1O[C@@](C#N)(c2ccc3c(N)ncnn23)[C@H](OC(=O)C(C)C)[C@@H]1OC(=O)C(C)C)Oc1ccccc1` (stereo partly drawn) [Example 74, [(2R,3R,4R,5R)-5-(4-aminopyrrolo[2,1-f][1,2,4]triazin-7-yl)-5-cyano-2-[[[[(1S)-2-(3,3-dimethylpentoxy)-1-methyl-2-oxo-ethyl]amino]-phenoxy-phosphoryl]oxymethyl]-4-(2-methylpropanoyloxy)tetrahydrofuran-3-yl] 2-methylpropanoate], the EC50 is 131 nM.
Still for that read-out and setting: next, `COC(C)(C)CCOC(=O)[C@H](C)NP(=O)(OC[C@H]1O[C@@](C#N)(c2ccc3c(N)ncnn23)[C@H](O)[C@@H]1O)Oc1ccccc1` (stereo partly drawn) [Example 75, (3-methoxy-3-methyl-butyl) (2S)-2-[[[(2R,3S,4R,5R)-5-(4-aminopyrrolo[2,1-f][1,2,4]triazin-7-yl)-5-cyano-3,4-dihydroxy-tetrahydrofuran-2-yl]methoxy-phenoxy-phosphoryl]amino]propanoate]: 289 nM; `COC(C)(C)CCOC(=O)[C@H](C)NP(=O)(OC[C@H]1O[C@@](C#N)(c2ccc3c(N)ncnn23)[C@H](OC(=O)C(C)C)[C@@H]1OC(=O)C(C)C)Oc1ccccc1` (stereo partly drawn) [Example 76, [(2R,3R,4R,5R)-5-(4-aminopyrrolo[2,1-f][1,2,4]triazin-7-yl)-5-cyano-2-[[[[(1S)-2-(3-methoxy-3-methyl-butoxy)-1-methyl-2-oxo-ethyl]amino]-phenoxy-phosphoryl]oxymethyl]-4-(2-methylpropanoyloxy)tetrahydrofuran-3-yl] 2-methylpropanoate]: 29.2 nM; `CCC(CC)COC(=O)[C@H](C)NP(=O)(OC[C@H]1O[C@@](C#N)(c2ccc3c(N)ncnn23)[C@H](OC(=O)C(C)C)[C@@H]1OC(=O)C(C)C)Oc1cccc(C(C)(C)C)c1` (stereo partly drawn) [Example 91, [(2R,3R,4R,5R)-5-(4-aminopyrrolo[2,1-f][1,2,4]triazin-7-yl)-2-[[(3-tert-butylphenoxy)-[[(1S)-2-(2-ethylbutoxy)-1-methyl-2-oxo-ethyl]amino]phosphoryl]oxymethyl]-5-cyano-4-(2-methylpropanoyloxy)tetrahydrofuran-3-yl] 2-methylpropanoate]: 194 nM.
Still for that read-out and setting: to `CC(C)CC(=O)O[C@H]1[C@@H](OC(=O)CC(C)C)[C@](C#N)(c2ccc3c(N)ncnn23)O[C@@H]1COP(=O)(N[C@@H](C)C(=O)OC1CCC1)Oc1ccccc1` (stereo partly drawn) [Example 109, (2R,3R,4R,5R)-2-(4-aminopyrrolo[2,1-f][1,2,4]triazin-7-yl)-2-cyano-5-((((((S)-1-cyclobutoxy-1-oxopropan-2-yl)amino)(phenoxy)phosphoryl)oxy)methyl)tetrahydrofuran-3,4-diyl bis(3-methylbutanoate)] belongs 43.5 nM; to `CCC(=O)O[C@H]1[C@@H](OC(=O)CC)[C@](C#N)(c2ccc3c(N)ncnn23)O[C@@H]1COP(=O)(N[C@@H](C)C(=O)OCC(CC)CC)Oc1ccc(C(C)(C)C)cc1` (stereo partly drawn) [Example 110, (2R,3R,4R,5R)-2-(4-aminopyrrolo[2,1-f][1,2,4]triazin-7-yl)-5-((((4-(tert-butyl)phenoxy)(((S)-1-(2-ethylbutoxy)-1-oxopropan-2-yl)amino)phosphoryl)oxy)methyl)-2-cyanotetrahydrofuran-3,4-diyl Dipropionate], 57.6 nM.
On the same count and under the same terms, next, `COC(C)(C)COC(=O)[C@H](C)NP(=O)(OC[C@H]1O[C@@](C#N)(c2ccc3c(N)ncnn23)[C@H](O)[C@@H]1O)Oc1ccc(C(C)(C)C)cc1` (stereo partly drawn) [Example 111, 2-methoxy-2-methylpropyl ((((2R,3S,4R,5R)-5-(4-aminopyrrolo[2,1-f][1,2,4]triazin-7-yl)-5-cyano-3,4-dihydroxytetrahydrofuran-2-yl)methoxy)(4-(tert-butyl)phenoxy)phosphoryl)-L-alaninate]: 846 nM; `CCOCCOCCOC(=O)[C@H](C)NP(=O)(OC[C@H]1O[C@@](C#N)(c2ccc3c(N)ncnn23)[C@H](O)[C@@H]1O)Oc1ccc(C(C)(C)C)cc1` (stereo partly drawn) [Example 112, 2-(2-ethoxyethoxy)ethyl ((((2R,3S,4R,5R)-5-(4-aminopyrrolo[2,1-f][1,2,4]triazin-7-yl)-5-cyano-3,4-dihydroxytetrahydrofuran-2-yl)methoxy)(4-(tert-butyl)phenoxy)phosphoryl)-L-alaninate]: 560 nM.
`CCC(C)(C)COC(=O)[C@H](C)NP(=O)(OC[C@H]1O[C@@](C#N)(c2ccc3c(N)ncnn23)[C@H](OC(=O)C(C)C)[C@@H]1OC(=O)C(C)C)Oc1ccccc1` (stereo partly drawn) [Example 114, (2R,3R,4R,5R)-2-(4-aminopyrrolo[2,1-f][1,2,4]triazin-7-yl)-2-cyano-5-((((((S)-1-(2,2-dimethylbutoxy)-1-oxopropan-2-yl)amino)(phenoxy)phosphoryl)oxy)methyl)tetrahydrofuran-3,4-diyl bis(2-methylpropanoate)]: the EC50 is 61 nM.
On the same count and under the same terms, to `CCOCCOCCOC(=O)[C@H](C)NP(=O)(OC[C@H]1O[C@@](C#N)(c2ccc3c(N)ncnn23)[C@H](OC(=O)C(C)C)[C@@H]1OC(=O)C(C)C)Oc1ccc(C(C)(C)C)cc1` (stereo partly drawn) [Example 115, (2R,3R,4R,5R)-2-(4-aminopyrrolo[2,1-f][1,2,4]triazin-7-yl)-5-((((4-(tert-butyl)phenoxy)(((S)-1-(2-(2-ethoxyethoxy)ethoxy)-1-oxopropan-2-yl)amino)phosphoryl)oxy)methyl)-2-cyanotetrahydrofuran-3,4-diyl bis(2-methylpropanoate)] belongs 62.6 nM; to `CCCCCCOC(=O)[C@H](Cc1ccccc1)NP(=O)(OC[C@H]1O[C@@](C#N)(c2ccc3c(N)ncnn23)[C@H](O)[C@@H]1O)Oc1ccc(C(C)(C)C)cc1` (stereo partly drawn) [Example 119, hexyl ((((2R,3S,4R,5R)-5-(4-aminopyrrolo[2,1-f][1,2,4]triazin-7-yl)-5-cyano-3,4-dihydroxytetrahydrofuran-2-yl)methoxy)(4-(tert-butyl)phenoxy)phosphoryl)-L-phenylalaninate], 559 nM; to `CCCCCCOC(=O)[C@H](C)NP(=O)(OC[C@H]1O[C@@](C#N)(c2ccc3c(N)ncnn23)[C@H](O)[C@@H]1O)Oc1ccc(C(C)(C)C)cc1` (stereo partly drawn) [Example 120, hexyl ((((2R,3S,4R,5R)-5-(4-aminopyrrolo[2,1-f][1,2,4]triazin-7-yl)-5-cyano-3,4-dihydroxytetrahydrofuran-2-yl)methoxy)(4-(tert-butyl)phenoxy)phosphoryl)-L-alaninate], 73.9 nM.
The same measure, in the same setting: next, `CCCCCCOC(=O)[C@H](Cc1ccccc1)NP(=O)(OC[C@H]1O[C@@](C#N)(c2ccc3c(N)ncnn23)[C@H](OC(=O)C(C)C)[C@@H]1OC(=O)C(C)C)Oc1ccc(C(C)(C)C)cc1` (stereo partly drawn) [Example 123, (2R,3R,4R,5R)-2-(4-aminopyrrolo[2,1-f][1,2,4]triazin-7-yl)-5-((((4-(tert-butyl)phenoxy)(((S)-1-(hexyloxy)-1-oxo-3-phenylpropan-2-yl)amino)phosphoryl)oxy)methyl)-2-cyanotetrahydrofuran-3,4-diyl bis(2-methylpropanoate)]: 63.7 nM.

Staying with this assay, now noted: read-out: EC50 RSV HEP2 96; HEp-2 cells, RSV A2, MOI=4, 4 days, 96 well; Table 3.
Take `CCC(CC)COC(=O)[C@H](C)NP(=O)(OC[C@H]1O[C@@](C#N)(c2ccc3c(N)ncnn23)[C@H](OC(=O)C(C)C)[C@@H]1OC(=O)C(C)C)Oc1ccc2ccccc2c1` (stereo partly drawn) [Example 69b, [(2R,3R,4R,5R)-5-(4-aminopyrrolo[2,1-f][1,2,4]triazin-7-yl)-5-cyano-2-[[[[(1S)-2-(2-ethylbutoxy)-1-methyl-2-oxo-ethyl]amino]-(2-naphthyloxy)phosphoryl]oxymethyl]-4-(2-methylpropanoyloxy)tetrahydrofuran-3-yl] 2-methylpropanoate]: the 50% effective concentration (EC50) worked out at 36.9 nM.
